# Read-outs that look alike come from different tables or passages of the source.
# Tests used:
# Plutella xylostella = assay: P. xylostella survival and leaf damage on untreated leaves after treating one leaf of Chinese cabbage; type: in vivo; parameters: key to P. xylostella leaf damage: 0=no damage or no sucking observed; 1=some damage or some sucking observed; 3=half leaf eaten or half of aphids sucking the leaf; 5=no leaf left or all insects sucking and reproducing; settings: for P. xylostella leaf damage: damage scale 0 - 5
# Procedure: DISEASE/PEST: Plutella xylostella / Myzus persicae CROP: Chinese cabbage (Brassica rapa subsp. Pekinensis) APPLICATION: FOLIAR on one leaf of the plant EXPERIMENT/TRIAL PROTOCOL: […] Leaves were left to dry for 1 hour. P. xylostella or M. persicae were added to clip cages on non-treated leaves 1 hour or 24 hours after the applied treatment wherein those cages restrict the movement of the insects to the other leaves. Table 2. Effect on survival and leaf damage of P. xylostella and […] on untreated leaves of […].
# Leptosphaeria maculans = assay: Seed treatment lab trial against Leptosphaeria maculans in oilseed rape seedlings; type: in vivo; settings: Plenodomus lingam, in Brassica napus, 144 h, 6 days after inoculation, read-out: % Efficacy
# Excerpt: [table] Table 8: Efficacy assessment of fatty acids in seed treatment of Leptosphaeria maculans in oilseed rape (variety Helga)
# [1] = system: Phytophthora infestans (PHYTIN); assay: whole plant or invertebrate; type: in vivo; settings: in Solanum tuberosum, foliar
# Puccinia triticina = assay: Greenhouse trial, foliar treatment against PUCCTR in wheat
# Maize (cultivar Mofox) = assay: Abiotic stress (flooding, drought, daily watered) growth trial on maize, foliar treatment
# [2] = system: Puccinia triticina (PUCCTR); assay: Greenhouse trial, seed treatment against PUCCTR in wheat; type: in vivo
# Excerpt: [table] Table 9. Efficacy assessment of pelargonic acid as seed treatment of PUCCTR in wheat (variety Benchmark)
# Meligethes Aeneus = assay: Field trial, foliar spray against M. aeneus on oil seed rape; type: in vivo
# Excerpt: DISEASE/[…] Aeneus CROP: Oil seed rape (Brassica napus spp. Campino) APPLICATION: Foliar spray EXPERIMENT/TRIAL PROTOCOL: Foliar spray was applied in the field with a motorized sprayer in spring when the insects appeared on the crop (BBCH 38-41). The trial design consisted of a randomized complete block with 4 replications per treatment. The treated area per plot was 30m^2. Used water volume was 300 L/ha. Evaluation was done by counting adult insects per 25 plants. […] Table 5: Efficacy assessment: % efficacy versus untreated (%UNCK) of M. aeneus on B. napus (field)
# Fusarium culmorum = assay: whole plant or invertebrate; type: in vivo; settings: Fusarium culmorum, in Triticum aestivum, 144 h, read-out: % Efficacy
# [3] = daily watered (normal) conditions, foliar 65 g/ha
# [4] = daily watered (normal) conditions, foliar 325 g/ha
# [5] = daily watered (normal) conditions, foliar 650 g/ha
# [6] = daily watered (normal) conditions, foliar 1300 g/ha
# [7] = drought conditions, foliar 65 g/ha
# [8] = drought conditions, foliar 325 g/ha
# [9] = drought conditions, foliar 650 g/ha
# [10] = drought conditions, foliar 1300 g/ha
# [11] = flooding conditions, foliar 65 g/ha
# [12] = flooding conditions, foliar 325 g/ha
# [13] = flooding conditions, foliar 650 g/ha
# [14] = flooding conditions, foliar 1300 g/ha
# [15] = seed treatment 3.8 g ai/ton, 11 dai
# [16] = seed treatment 7.6 g ai/ton, 11 dai
# [17] = seed treatment 38 g ai/ton, 11 dai
# [18] = seed treatment 76 g ai/ton, 21 dai
structure (smiles),measurement,setting,value
"CCCCCCCCC(=O)O [Pelargonic acid, pelargonic acid]",P. xylostella leaf damage,"Plutella xylostella; 0.78 mg on one leaf, insects added 1h after treatment, 6 DAT",1
same,P. xylostella leaf damage,"Plutella xylostella; 0.78 mg on one leaf, insects added 1h after treatment, 24h AT",1
same,P. xylostella leaf damage,"Plutella xylostella; 0.78 mg on one leaf, insects added 24 h after treatment, 6 DAT",5
same,P. xylostella leaf damage,"Plutella xylostella; 0.78 mg on one leaf, insects added 24 h after treatment, 24h AT",4
same,P. xylostella survival,"Plutella xylostella; 0.78 mg on one leaf, insects on non-treated leaves, added 1h after treatment, 6 DAT",growth limited to L3 stage
same,larval maturation and leaf damage in P. xylostella,"Plutella xylostella; 0.78mg, insects introduced 1h after treatment to an untreated leaf of the same plant",reduction
same,Emax,"Leptosphaeria maculans; seed treatment 0.76 g/ton, % healthy plants vs infected seedlings",100%
same,Emax,Leptosphaeria maculans; seed treatment 3.04 g/ton,80%
same,Emax,Leptosphaeria maculans; seed treatment 6.08 g/ton,80%
same,Emax,Leptosphaeria maculans; seed treatment 7.60 g/ton,100%
same,% efficacy,"[1]; read-out: ASSESSMENT 7 DAI (% efficacy), foliar 0.76 g/ha",0.2%
same,% efficacy,"[1]; read-out: ASSESSMENT 7 DAI (% efficacy), foliar 1.14 g/ha",14%
same,% efficacy,"[1]; read-out: ASSESSMENT 7 DAI (% efficacy), foliar 1.52 g/ha",20.1%
same,% efficacy,"[1]; read-out: ASSESSMENT 7 DAI (% efficacy), foliar 2.66 g/ha",23%
same,% efficacy,"[1]; read-out: ASSESSMENT 7 DAI (% efficacy), foliar 3.80 g/ha",18.6%
same,% efficacy,"[1]; read-out: ASSESSMENT 7 DAI (% efficacy), foliar 5.32 g/ha",17.7%
same,% efficacy,"[1]; read-out: ASSESSMENT 7 DAI (% efficacy), foliar 7.60 g/ha, inoculated 7 days after treatment",3%
same,% efficacy,"[1]; read-out: ASSESSMENT 14 DAI (% efficacy), foliar 0.76 g/ha",0%
same,% efficacy,"[1]; read-out: ASSESSMENT 14 DAI (% efficacy), foliar 1.14 g/ha",7.9%
same,% efficacy,"[1]; read-out: ASSESSMENT 14 DAI (% efficacy), foliar 1.52 g/ha",22%
same,% efficacy,"[1]; read-out: ASSESSMENT 14 DAI (% efficacy), foliar 2.66 g/ha",21.9%
same,% efficacy,"[1]; read-out: ASSESSMENT 14 DAI (% efficacy), foliar 3.80 g/ha",7%
same,% efficacy,"[1]; read-out: ASSESSMENT 14 DAI (% efficacy), foliar 5.32 g/ha",16.7%
same,% efficacy,"[1]; read-out: ASSESSMENT 14 DAI (% efficacy), foliar 7.60 g/ha",5.4%
same,EFFICACY % ALL LEAV ES,"Puccinia triticina; foliar 1.52 g ai/ha, 13 dai",18.6%
same,EFFICACY % LEAF 1,"Puccinia triticina; foliar 1.52 g ai/ha, 13 dai",50.0%
same,EFFICACY % LEAF 2,"Puccinia triticina; foliar 1.52 g ai/ha, 13 dai",5.9%
same,EFFICACY % LEAF 3,"Puccinia triticina; foliar 1.52 g ai/ha, 13 dai",5.9%
same,EFFICACY % LEAF 4,"Puccinia triticina; foliar 1.52 g ai/ha, 13 dai",12.5%
same,EFFICACY % ALL LEAV ES,"Puccinia triticina; foliar 7.6 g ai/ha, 21 dai",23.6%
same,EFFICACY % LEAF 1,"Puccinia triticina; foliar 7.6 g ai/ha, 21 dai",28.6%
same,EFFICACY % LEAF 2,"Puccinia triticina; foliar 7.6 g ai/ha, 21 dai",17.9%
same,EFFICACY % LEAF 3,"Puccinia triticina; foliar 7.6 g ai/ha, 21 dai",29.8%
same,EFFICACY % LEAF 4,"Puccinia triticina; foliar 7.6 g ai/ha, 21 dai",18.3%
same,EFFICACY % ALL LEAV ES,"Puccinia triticina; foliar 95 g ai/ha, 13 dai",11.3%
same,EFFICACY % LEAF 1,"Puccinia triticina; foliar 95 g ai/ha, 13 dai",33.3%
same,EFFICACY % LEAF 2,"Puccinia triticina; foliar 95 g ai/ha, 13 dai",0.0%
same,EFFICACY % LEAF 3,"Puccinia triticina; foliar 95 g ai/ha, 13 dai",11.8%
same,EFFICACY % LEAF 4,"Puccinia triticina; foliar 95 g ai/ha, 13 dai","0,0%"
same,EFFICACY % ALL LEAV ES,"Puccinia triticina; foliar 760 g ai/ha, 13 dai",30.5%
same,EFFICACY % LEAF 1,"Puccinia triticina; foliar 760 g ai/ha, 13 dai",66.7%
same,EFFICACY % LEAF 2,"Puccinia triticina; foliar 760 g ai/ha, 13 dai",11.8%
same,EFFICACY % LEAF 3,"Puccinia triticina; foliar 760 g ai/ha, 13 dai",0.0%
same,EFFICACY % LEAF 4,"Puccinia triticina; foliar 760 g ai/ha, 13 dai",43.8%
same,% total growth to control,Maize (cultivar Mofox); [3],71%
same,ASSESSMENT total growth after 15 days (cm),Maize (cultivar Mofox); [3],18.4 cm
same,% total growth to control,Maize (cultivar Mofox); [4],87%
same,ASSESSMENT total growth after 15 days (cm),Maize (cultivar Mofox); [4],22.5 cm
same,% total growth to control,Maize (cultivar Mofox); [5],95%
same,ASSESSMENT total growth after 15 days (cm),Maize (cultivar Mofox); [5],24.8 cm
same,% total growth to control,Maize (cultivar Mofox); [6],78%
same,ASSESSMENT total growth after 15 days (cm),Maize (cultivar Mofox); [6],20.3 cm
same,% total growth to control,Maize (cultivar Mofox); [7],87%
same,ASSESSMENT total growth after 15 days (cm),Maize (cultivar Mofox); [7],17.4 cm
same,% total growth to control,Maize (cultivar Mofox); [8],87%
same,ASSESSMENT total growth after 15 days (cm),Maize (cultivar Mofox); [8],17.6 cm
same,% total growth to control,Maize (cultivar Mofox); [9],112%
same,ASSESSMENT total growth after 15 days (cm),Maize (cultivar Mofox); [9],22.2 cm
same,% total growth to control,Maize (cultivar Mofox); [10],91%
same,ASSESSMENT total growth after 15 days (cm),Maize (cultivar Mofox); [10],18.2 cm
same,% total growth to control,Maize (cultivar Mofox); [11],104%
same,ASSESSMENT total growth after 15 days (cm),Maize (cultivar Mofox); [11],26.3 cm
same,% total growth to control,Maize (cultivar Mofox); [12],104%
same,ASSESSMENT total growth after 15 days (cm),Maize (cultivar Mofox); [12],26.1 cm
same,% total growth to control,Maize (cultivar Mofox); [13],90%
same,ASSESSMENT total growth after 15 days (cm),Maize (cultivar Mofox); [13],22.6 cm
same,% total growth to control,Maize (cultivar Mofox); [14],82%
same,ASSESSMENT total growth after 15 days (cm),Maize (cultivar Mofox); [14],20.7 cm
same,EFFICACY % ALL LEAVES,[2]; [15],17.3%
same,EFFICACY % LEAF 1,[2]; [15],0.0%
same,EFFICACY % LEAF 2,[2]; [15],14.3%
same,EFFICACY % LEAF 3,[2]; [15],17.6%
same,EFFICACY % LEAF 4,[2]; [15],20.0%
same,EFFICACY % ALL LEAVES,[2]; [16],29.6%
same,EFFICACY % LEAF 1,[2]; [16],0.0%
same,EFFICACY % LEAF 2,[2]; [16],7.1%
same,EFFICACY % LEAF 3,[2]; [16],11.8%
same,EFFICACY % LEAF 4,[2]; [16],70.0%
same,EFFICACY % ALL LEAVES,[2]; [17],6.3%
same,EFFICACY % LEAF 1,[2]; [17],0.0%
same,EFFICACY % LEAF 2,[2]; [17],7.1%
same,EFFICACY % LEAF 3,[2]; [17],11.8%
same,EFFICACY % LEAF 4,[2]; [17],0.0%
same,EFFICACY % ALL LEAVES,[2]; [18],19.2%
same,EFFICACY % LEAF 1,[2]; [18],31.8%
same,EFFICACY % LEAF 2,[2]; [18],18.9%
same,EFFICACY % LEAF 3,[2]; [18],12.0%
same,EFFICACY % LEAF 4,[2]; [18],14.0%
same,% efficacy versus untreated (%UNCK) of M. aeneus on B. napus (field),"Meligethes Aeneus; 650 g/ha, 4DAA",91 b %
same,% efficacy versus untreated (%UNCK) of M. aeneus on B. napus (field),"Meligethes Aeneus; 650 g/ha, 8DAA",89 b %
same,% efficacy versus untreated (%UNCK) of M. aeneus on B. napus (field),"Meligethes Aeneus; 650 g/ha, 300 L/ha water, 1DAA",34.60 c %
same,% efficacy versus untreated (%UNCK) of M. aeneus on B. napus (field),"Meligethes Aeneus; 975 g/ha, 1DAA",79.25 ab %
same,% efficacy versus untreated (%UNCK) of M. aeneus on B. napus (field),"Meligethes Aeneus; 975 g/ha, 4DAA",100 a %
same,% efficacy versus untreated (%UNCK) of M. aeneus on B. napus (field),"Meligethes Aeneus; 975 g/ha, 8DAA",100 a %
same,Emax,Fusarium culmorum,100%

# From EP4501112A1, “PLANT DEFENSE ELICITORS” (Globachem NV, priority 2023, dated 2025)
